This is an account of results in US10301299B2, “Glycosidase inhibitors” (Merck Patent GmbH, priority 2013, dated 2019).

Like-named read-outs stand apart in the source and are kept apart here.

One test deals with T1, His-Tagged hOGA (Homo sapiens, UniProt O60502).
T1 sequence (O60502 1-916): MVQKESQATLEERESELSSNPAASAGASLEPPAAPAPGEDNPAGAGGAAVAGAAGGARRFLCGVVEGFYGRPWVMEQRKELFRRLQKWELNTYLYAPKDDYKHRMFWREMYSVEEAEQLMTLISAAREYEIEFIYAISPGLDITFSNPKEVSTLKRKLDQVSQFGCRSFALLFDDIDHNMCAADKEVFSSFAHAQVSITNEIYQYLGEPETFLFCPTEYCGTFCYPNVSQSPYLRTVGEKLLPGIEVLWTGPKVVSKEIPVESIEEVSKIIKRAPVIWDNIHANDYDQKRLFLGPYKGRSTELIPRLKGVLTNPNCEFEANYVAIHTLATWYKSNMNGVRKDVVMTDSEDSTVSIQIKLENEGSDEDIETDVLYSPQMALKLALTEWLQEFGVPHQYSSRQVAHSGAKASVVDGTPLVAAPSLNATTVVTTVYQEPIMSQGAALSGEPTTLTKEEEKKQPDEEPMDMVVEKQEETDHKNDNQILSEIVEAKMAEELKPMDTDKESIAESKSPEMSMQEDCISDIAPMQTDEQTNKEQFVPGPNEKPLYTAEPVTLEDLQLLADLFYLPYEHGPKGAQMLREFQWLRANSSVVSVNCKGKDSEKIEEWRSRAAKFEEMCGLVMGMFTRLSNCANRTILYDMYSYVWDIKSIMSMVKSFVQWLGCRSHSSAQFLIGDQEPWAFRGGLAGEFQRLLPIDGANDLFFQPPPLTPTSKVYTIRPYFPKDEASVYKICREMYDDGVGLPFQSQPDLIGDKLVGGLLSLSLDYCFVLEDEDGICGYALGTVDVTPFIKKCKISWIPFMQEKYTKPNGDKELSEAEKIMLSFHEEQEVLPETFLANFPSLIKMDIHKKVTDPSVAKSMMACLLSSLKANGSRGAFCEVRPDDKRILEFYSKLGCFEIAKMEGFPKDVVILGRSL
The experiment in a line: Human O-GlcNAcase enzyme inhibition assay. The class given is biochemical. How it is done: The following reaction components were added to a final volume of 10 μL in Mcllvaine's Buffer (pH 6.5): 20 nM His-Tagged hOGA and 10 μM Fluorescein mono-beta-D-(2-deoxy-2-N-acetyl) glucopyranoside (FL-GlcNAc; Marker Gene Technologies Inc, Part # M1485). […] The amount of fluorescence measured was plotted against the concentration of inhibitor to produce a sigmoidal dose response curve, from which an IC50 was calculated.

The subject of test [1] is B35 rat neuroblastoma cells. Put plainly: Cellular O-GlcNAcylation assay (tau O-GlcNAc S400, ICC). The settings on record: Neuroblastoma cell, 16 h, tau O-GlcNAcylated at serine 400. Format: cell-based. How it is done:
The following day cells were treated with appropriate concentration of a solution of inhibitor for 16 h at 37° C. in 5% CO2. Cells were fixed in 100 μl 4% paraformaldehyde for 15 min at room temperature, followed by three washes in PBS buffer. The cells were then permeabilized with 0.1% Triton X-100 for 60 min at room temperature. After three washes in PBS the cells were blocked with 10% goat serum containing 1% BSA in PBS buffer for two hours at room temperature. The cells were then incubated with a monoclonal rabbit antibody specific for tau O-GlcNAcylated at serine 400 (Epitomics) at a 1:1000 dilution overnight at 4° C. […] To calculate an EC50 the total peak intensity was plotted against the concentration of inhibitor to produce a sigmoidal dose response curve.

The mark [2] stands for this setting: 20 nM His-Tagged hOGA, 10 μM FL-GlcNAc, pH 6.5, 60 min, read-out: hOGA enzyme inhibition (IC50).

As a reminder, the IC50 is the concentration at which inhibition is half-maximal. A word on the EC50: it is the concentration that produces a half-maximal response. The low end stands for an effect from little substance, the high end for a need for much substance. On to `CC(=O)Nc1ncc(CN2CCC(c3ccccc3)CC2)s1` [Compound 1, N-(5-((4-phenylpiperidin-1-yl)methyl)thiazol-2-yl)acetamide], for which, on His-Tagged hOGA (setting [2]), the IC50 is under 200 nM. The compound further displayed an EC50 in test [1] of 200 to 1000 nM.
The like results for `CC(=O)Nc1ncc(CN2CCN(c3ccccc3)CC2)s1` [Compound 19, N-[5-(4-phenyl-piperazin-1-ylmethyl)-thiazol-2-yl]-acetamide] were, in that order, 200 to 1000 nM and 1000 to 10000 nM.
The corresponding values for `CC(=O)Nc1ncc(CN2CCC(c3ccc(C)cc3)CC2)s1` [Compound 14, N-(5-((4-(p-tolyl)piperidin-1-yl)methyl)thiazol-2-yl)acetamide] are under 200 nM and 200 to 1000 nM.
Take `CC(=O)Nc1ncc(CN2CCC(c3ccccc3C)CC2)s1` [Compound 43, N-(5-((4-(o-tolyl)piperidin-1-yl)methyl)thiazol-2-yl)acetamide]: the half-inhibitory concentration (IC50) at His-Tagged hOGA (setting [2]) is 1000 to 10000 nM. This compound also registered an EC50 in test [1] of 200 to 1000 nM.
The corresponding values for `COc1ccc(C2CCN(Cc3cnc(NC(C)=O)s3)CC2)cc1` [Compound 16, N-(5-((4-(4-methoxyphenyl)piperidin-1-yl)methyl)thiazol-2-yl)acetamide] are under 200 nM and 1000 to 10000 nM.
The corresponding values for `CC(=O)Nc1ncc(CN2CCC(F)(c3ccccc3)CC2)s1` [Compound 41, N-[5-(4-fluoro-4-phenyl-piperidin-1-ylmethyl)-thiazol-2-yl]-acetamide] are 1000 to 10000 nM and 1000 to 10000 nM.
For `COC(=O)Nc1ncc(CN2CCC(c3ccccc3)CC2)s1` [Compound 2, [5-(4-Phenyl-piperidin-1-ylmethyl)-thiazol-2-yl]-carbamic acid methyl ester], at His-Tagged hOGA (setting [2]), the IC50 was 1000 to 10000 nM. In addition, the EC50 in test [1] was over 10000 nM.
`CC(=O)Nc1ncc(CN2CCC(Cc3ccccc3)CC2)s1` [Compound 28, N-(5-((4-benzylpiperidin-1-yl)methyl)thiazol-2-yl)acetamide]: the IC50 at His-Tagged hOGA was under 200 nM. The compound also came in with a 50% effective concentration (EC50) in test [1] of under 200 nM.
In the case of `CC(=O)Nc1ncc(CN2CCC(c3ccccc3O)CC2)s1` [Compound 37, N-(5-((4-(2-hydroxyphenyl)piperidin-1-yl)methyl)thiazol-2-yl)acetamide], the IC50 on His-Tagged hOGA (setting [2]) is 200 to 1000 nM. In addition, the 50% effective concentration (EC50) in test [1] is under 200 nM.
For the compound `CC(=O)Nc1ncc(CN2CCC(c3cccc(O)c3)CC2)s1` [Compound 39, N-(5-((4-(3-hydroxyphenyl)piperidin-1-yl)methyl)thiazol-2-yl)acetamide], the half-inhibitory concentration (IC50) on His-Tagged hOGA (setting [2]) fell in the range of 200 to 1000 nM. Further, the EC50 in test [1] is 200 to 1000 nM.
Regarding `CC(=O)Nc1ncc(CN2CCC(c3ccc(O)cc3)CC2)s1` [Compound 38, N-(5-((4-(4-hydroxyphenyl)piperidin-1-yl)methyl)thiazol-2-yl)acetamide], the half-inhibitory concentration (IC50) at His-Tagged hOGA (setting [2]) was under 200 nM. The compound also returned an EC50 in test [1] of 200 to 1000 nM.
With `CC(=O)Nc1ncc(CN2CCC(c3ccc(F)cc3)CC2)s1` [Compound 42, N-(5-((4-(4-fluorophenyl)piperidin-1-yl)methyl)thiazol-2-yl)acetamide], the IC50 at His-Tagged hOGA (setting [2]) was in the range of 200 to 1000 nM. This compound also yielded a half-maximal effective concentration (EC50) in test [1] of 200 to 1000 nM.
As for `CC(=O)Nc1ncc(CN2CCCC(c3ccccc3)C2)s1` (stereo not drawn) [Compound 29, N-(5-((3-phenylpiperidin-1-yl)methyl)thiazol-2-yl)acetamide], the half-inhibitory concentration (IC50) on His-Tagged hOGA (setting [2]) was under 200 nM. The compound further returned an EC50 in test [1] of 1000 to 10000 nM.
Take `CC(=O)Nc1ncc(CN2CCC(c3ccccc3F)CC2)s1` [Compound 30, N-(5-((4-(2-fluorophenyl)piperidin-1-yl)methyl)thiazol-2-yl)acetamide]: on His-Tagged hOGA (setting [2]), the IC50 was 200 to 1000 nM. Also, the EC50 in test [1] lay in the range of 200 to 1000 nM.
`CC(=O)Nc1ncc(CN2CCC(c3ccc(C#N)cc3)CC2)s1` [Compound 36, N-(5-((4-(4-cyanophenyl)piperidin-1-yl)methyl)thiazol-2-yl)acetamide]: the half-maximal inhibitory concentration (IC50) at His-Tagged hOGA (setting [2]) lay in the range of 200 to 1000 nM. In test [1], the concentration for a half-maximal effect (EC50) lay in the range of 200 to 1000 nM.
For the compound `COc1cccc(C2CCN(Cc3cnc(NC(C)=O)s3)CC2)c1` [Compound 32, N-(5-((4-(3-methoxyphenyl)piperidin-1-yl)methyl)thiazol-2-yl)acetamide], the IC50 on His-Tagged hOGA (setting [2]) is under 200 nM. Further, in test [1], the EC50 lay within 200 to 1000 nM.
Take `CC(=O)Nc1ncc(CN2CCC(c3ccccc3C#N)CC2)s1` [Compound 35, N-(5-((4-(2-cyanophenyl)piperidin-1-yl)methyl)thiazol-2-yl)acetamide]: the IC50 at His-Tagged hOGA (setting [2]) is 1000 to 10000 nM. Further, the concentration for a half-maximal effect (EC50) in test [1] lay within 200 to 1000 nM.
The like results for `CC(=O)Nc1ncc(CNCCCc2ccccc2)s1` [Compound 20, N-{5-[(3-phenyl-propylamino)-methyl]-thiazol-2-yl}-acetamide] were, in that order, 200 to 1000 nM and 1000 to 10000 nM.
The like results for `CC(=O)Nc1ncc(CN2CCC(C3CCCCC3)CC2)s1` [Compound 27, N-(5-((4-cyclohexylpiperidin-1-yl)methyl)thiazol-2-yl)acetamide] were, in that order, under 200 nM and under 200 nM.
In the case of `CC(=O)Nc1ncc(CN(C)CCCc2ccccc2)s1` [Compound 21, N-(5-{[methyl-(3-phenyl-propyl)-amino]-methyl}-thiazol-2-yl)-acetamide], the IC50 on His-Tagged hOGA (setting [2]) was under 200 nM. The compound further had an EC50 in test [1] of 1000 to 10000 nM.
The like results for `COc1ccccc1C1CCN(Cc2cnc(NC(C)=O)s2)CC1` [Compound 33, N-(5-((4-(2-methoxyphenyl)piperidin-1-yl)methyl)thiazol-2-yl)acetamide] were, in that order, 200 to 1000 nM and 200 to 1000 nM.
Consider `CC(=O)Nc1ncc(CN2CC(c3ccccc3)C2)s1` [Compound 22, N-[5-(3-phenyl-azetidin-1-ylmethyl)-thiazol-2-yl]-acetamide], for which the 50% inhibitory concentration (IC50) at His-Tagged hOGA (setting [2]) lay in the range of 200 to 1000 nM. The 50% effective concentration (EC50) in test [1] lay in the range of 1000 to 10000 nM.
The corresponding values for `CC(=O)Nc1ncc(CN2CCCCC2)s1` [Compound 25, N-(5-piperidin-1-ylmethyl-thiazol-2-yl)-acetamide] are 1000 to 10000 nM and 200 to 1000 nM.
The like results for `CC(=O)Nc1ncc(CN2CCC(C(C)C)CC2)s1` [Compound 26, N-[5-(4-isopropylpiperidin-1-ylmethyl)thiazol-2-yl]-acetamide] were, in that order, under 200 nM and 1000 to 10000 nM.
